# Measurements as given in US8575156B2, “Cyclic inhibitors of 11β-hydroxysteroid dehydrogenase 1” (Vitae Pharmaceuticals, Inc., priority 2007, dated 2013).
# pIC50: −log10 of the molar value. Read-outs that look alike come from different tables or passages of the source.
# Target: 11β-HSD1 (Homo sapiens, UniProt P28845)
# Conditions: for pIC50: read-out: IC50 Range, microsomes from CHO cells overexpressing human 11β-HSD1; for Average % inhibition at 100 nM: 0.1 µM
# [1] = Biological Test Example 1, 100 nM compound
# Sequence of 11β-HSD1 (P28845 whole entry): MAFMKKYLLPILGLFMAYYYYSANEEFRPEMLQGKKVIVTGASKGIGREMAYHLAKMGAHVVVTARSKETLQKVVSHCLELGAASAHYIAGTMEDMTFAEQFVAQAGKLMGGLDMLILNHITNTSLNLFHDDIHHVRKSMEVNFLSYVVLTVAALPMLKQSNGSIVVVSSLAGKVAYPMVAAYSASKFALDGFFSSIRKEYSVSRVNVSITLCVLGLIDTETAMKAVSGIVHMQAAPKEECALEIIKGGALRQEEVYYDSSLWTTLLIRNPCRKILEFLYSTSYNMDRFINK
"Average % inhibition at 111.1 nM (Biological Test Example 1, 111.1 nM compound, 0.1111 µM)",pIC50 (Biological Test Example 1),Average % inhibition at 100 nM [1],Structure (SMILES),Average % inhibition at 100 nM
,> 7.00,95.6%,"C[C@@H](c1ccc(-c2ccc(F)cc2)cc1)N1CC[C@](CC(O)CO)(c2ccccc2)OC1=O (single isomer, unassigned) [EXAMPLE 168 Isomer 2]",
,> 7.00,68.6%,"C[C@@H](c1ccc(-c2ccc(F)cc2F)cc1)N1CCC(CCCO)(c2cccs2)OC1=O (single isomer, unassigned) [EXAMPLE 171 Isomer 2]",
,> 7.00,94.5%,"C[C@@H](c1ccc(-c2ccc(F)cc2F)cc1)N1CC[C@](CC(O)CO)(c2ccccc2)OC1=O (single isomer, unassigned) [EXAMPLE 173 Isomer 2]",
,> 7.00,,"C=CCC1(c2ccc(F)cc2)CCN([C@@H](C)c2ccc(OC)cc2)C(=O)O1 (single isomer, unassigned) [EXAMPLE 193 Isomer 2]",
,> 7.00,,"CC(C)C1(CCCO)CCN([C@@H](C)c2ccc(Br)cc2)C(=O)O1 (single isomer, unassigned) [EXAMPLE 200 Isomer 2]",
,> 7.00,95.6%,"CC(O)C[C@]1(c2ccccc2)CCN([C@@H](C)c2ccc(-c3ccc(F)cc3)cc2)C(=O)O1 (single isomer, unassigned) [EXAMPLE 224 Isomer 2]",
,> 7.00,,"C[C@@H](c1ccc(Br)cc1)N1CCC(CCCO)(c2ccc(F)cc2)OC1=O (single isomer, unassigned) [EXAMPLE 227 Isomer 2]",

# More lines, now with the values behind:
Structure (SMILES),"Average % inhibition at 111.1 nM (Biological Test Example 1, 111.1 nM compound, 0.1111 µM)",pIC50 (Biological Test Example 1),Average % inhibition at 100 nM [1],Average % inhibition at 100 nM
"CC(O)C[C@@]1(c2cccs2)CCN([C@@H](C)c2ccc(-c3ccc(F)cc3)cc2)C(=O)O1 (single isomer, unassigned) [EXAMPLE 167 Isomer 2]",77.2%,> 7.00,,
"CC(C)C1(CCCO)CCN([C@@H](C)c2ccc(Cl)cc2)C(=O)O1 (single isomer, unassigned) [EXAMPLE 187 Isomer 2]",,> 7.00,,46.4%
"C=CCC1(c2ccc(F)cc2)CCN([C@@H](C)c2ccc(C)cc2)C(=O)O1 (single isomer, unassigned) [EXAMPLE 189 Isomer 2]",,> 7.00,90.1%,
"C=CCC1(c2ccc(F)cc2)CCN([C@@H](C)c2ccc(Cl)cc2)C(=O)O1 (single isomer, unassigned) [EXAMPLE 196 Isomer 2]",,> 7.00,98.9%,
"C[C@@H](C1CCCCC1)N1CC[C@](CC(O)CO)(c2ccc(F)cc2)OC1=O (single isomer, unassigned) [EXAMPLE 197 Isomer 2]",,> 7.00,82.1%,
"CC(O)C[C@]1(c2ccc(F)cc2)CCN([C@@H](C)c2ccc(Cl)cc2)C(=O)O1 (single isomer, unassigned) [EXAMPLE 203 Isomer 2]",,> 7.00,93.8%,
"COc1ccc([C@H](C)N2CC[C@](CC(O)CO)(c3ccc(F)cc3)OC2=O)cc1 (single isomer, unassigned) [EXAMPLE 206 Isomer 2]",,> 7.00,85.9%,
"CC(C)C1(CCCO)CCN([C@@H](C)c2ccc(-c3ccc(F)cc3F)cc2)C(=O)O1 (single isomer, unassigned) [EXAMPLE 212 Isomer 2]",,> 7.00,82.6%,
"C[C@@H](c1ccc(-c2ccc(F)cc2F)cc1)N1CCC(CCO)(c2cccs2)OC1=O (single isomer, unassigned) [EXAMPLE 233 Isomer 2]",,> 7.00,64.1%,
"CC[C@@H](c1ccc(Br)cc1)N1CC[C@](CC(O)CO)(c2ccccc2)OC1=O (single isomer, unassigned) [EXAMPLE 239 Isomer 2]",,> 7.00,89.5%,
"CC[C@@H](c1ccc(Br)cc1)N1CC[C@](CC(O)CO)(c2ccc(F)cc2)OC1=O (single isomer, unassigned) [EXAMPLE 255 Isomer 2]",,> 7.00,89.3%,
